In patent US9107879B1, “Methods of increasing the cytotoxicity of chemotherapeutic agents with multisubstrate inhibitors of histone, protein-lys, polyamine acetylation, and polyamine metabolism” (Vanderbilt University, priority 2010, dated 2015):

Experiments:
[1] = tested on: H358 lung cancer cells; assay: [3H]-thymidine incorporation DNA synthesis assay; assay type: cell-based; conditions: Homo sapiens, NCI-H358; Example 1: 50 μM 1a (continuous) + 5 nM camptothecin (24 h); 48 hours post treatment; read-out: DNA synthesis rate, % of control rate
[2] = tested on: endogenous HATs associated with solubilized chromatin; conditions: literature (Bandyopadhyay et al 2009; Parello et al. 1990); cited from earlier work
[3] = 5 mM, approximately 10 mg/kg, twice per week for 3 weeks
Description: They injected a second set of 4 mice with 100 μl of spd-3a (5 mM, approximately 10 mg/kg, or about 0.25 mM initial blood concentration), twice per week for 3 weeks.

[4] = tested on: normal GT41F human skin fibroblast cells; assay: [3H]-thymidine incorporation DNA synthesis assay; assay type: cell-based; conditions: 1a 50 μM; camptothecin 5 nM 18 hours
From the text: Cells were either labeled immediately before treatment (starting DNA synthesis rate), or subjected to the indicated treatments and then pulsed on successive days until day 4. DNA synthesis is represented as the percent of starting DNA synthesis rate.
The present inventors used a 96-well viability assays as described in Saadatmandi et al (Cancer Gene Therapy (2002) 9:930-9) to examine the effect of the spermidine-CoA inhibitor disclosed previously on DNA synthesis in normal GT41F human skin fibroblast cells, as well as its combined effect with camptothecin. GT41F cells were plated in 96-well plates at 3000 cells per well. […] Following the 6-hour labeling, cells were harvested and incorporation of [^3H]-thymidine was determined by scintillation counting.

[5] = tested on: BT20 breast cancer cell line (TNBC); assay: 3-day viability assay; assay type: cell-based; conditions: spd-2a increasing doses; camptothecin 5 nM
From the text: The effect of spd-2a on the BT20 breast cancer cell line derived form a spontaneous TNBC with wild-type BrCal was examined. […] Having previously established that spd-2a is a therapy sensitizer, the present inventors then examined the combined effects of spd-2a and camptothecin (the basis for the chemotherapeutic drug, Irinotecan).

[6] = tested on: γ-H2A.X in H358 cells; assay: double strand break / gamma-H2A.X Western and co-immunoprecipitation; assay type: cell-based; conditions: 18 hours post-start; 1a 50 μM, 5FU 2 μM, cisplatin 2 μM, camptothecin 5 nM
Description: Also shown are controls for no treatment (“c” minus 1a) or treatment with 1a only (“c” plus 1a). Each lane represents 60 μg protein. […] Each lane represents 60 μg protein.
To measure DSB repair, cells were incubated for 1 hour with 10 μM camptothecin to induce DSBs, followed by incubation in the presence or absence of 50 μM 1a. At fixed times, histones were prepared by extraction in 0.2M H2SO4 as described previously and 50 μg extract was analyzed by 12% SDS-PAGE followed Western analysis as described previously, using rabbit polyclonal anti-γ-H2A.X [phosphor ser 139] (Novus Biologicals, Littleton, Colo.) or anti-H3 (Upstate Biotechnology, Inc, Lake Placid, N.Y.). Band intensities were quantitated digitally. To study acetylation of γ-H2A.X, we carried out co-immunoprecipitation analysis using 50 μg extract protein in immunoprecipitation buffer (10 mM sodium phosphate pH 7, 0.15 M NaCl, 0.1% SDS, 1% NP40, 1% sodium deoxycholate, aprotinin, 1 mM PMSF, complete protease inhibitors (Roche) using immobilized anti-acetyl-lysine (Millipore, Temecula, Calif.) in the immunoprecipitation step. The immunoprecipitated material was then analyzed as for Western analysis using anti γ-H2A.X.
Double strand breaks (DSBs) can be formed by a variety of DNA damaging agents, including camptothecin, cisplatin, 5FU, and UVC radiation (Avemann K, et al., 1988, Mol Cell Biol, 8: 3026-34; Bogdanov K V, et al. 1997, Br J Haematol, 98:869-72; Pavon M A, et al., Int J Cancer, 2008, 123:1068-79) implying that DSB repair may play a role in reducing their cellular toxicity. To examine how 1a treatment affects DSB repair in H358 cells we made use of the fact that the histone variant, H2A.X becomes phosphorylated at sites of double strand breaks (denoted γ-H2A.X), and can be detected by immunoblot analysis of acid extracted cells (Rogaku E P, et al., 1999, J Cell Biol, 146:905-16). […] Total H3 levels and H2A.X levels (control) are unaffected by these treatments (FIG. 4B). […]

[7] = tested on: DU 145 prostate cancer cells; assay: gamma-H2A.X immunofluorescence; assay type: cell-based; conditions: 8 hours, 5 nM camptothecin alone
From the text: The immuno fluorescence images on the left and right sides of the middle scheme illustrate this visually. […] Cells were fixed and stained with a rabbit antibody to the histone variant, γ-H2A.X, a marker for DNA double stranded breaks, followed by staining with a fluorescein (FITC)-tagged goat anti rabbit secondary antibody. Nuclei were stained with Hoescht 33345.

[8] = tested on: DLD-1 colon cancer cells; assay: 96-well MTS viability assay; assay type: cell-based; conditions: 3 days
Description: Cells were plated in 96-well plates at 2000 cells per well and treated with the indicated doses of spd-3a. Cell viability was measured by the MTS assay 3 days later.
DLD-1 cells or H358 cells were plated in 96-well plates at 2000 cells per well and treated with the indicated doses of (A) spm-3 or (B) spm-2. (C) Cell viability was measured by the MTS assay 3 days later. Similar experiment using GT41 fibroblasts with spm2 or spm 3. Each assay point represents an average of duplicates.

SMILES: CC(C)(COP(=O)(O)OP(=O)(O)OC[C@H]1O[C@@H](n2cnc3c(N)ncnc32)[C@H](O)[C@@H]1OP(=O)(O)O)[C@@H](O)C(=O)NCCC(=O)NCCSCC(=O)NCCCNCCCCN [1a, spermidine[N1]-CoA]
- activity at 50 µM [1]: ~10%

SMILES: CC(=O)NCCSCC(=O)NCCCNCCCCN [3a]
- inhibitory activity against endogenous HAT [2]: lower inhibitory effect than Spd-2a
- body weight [3]: did not lose weight
- signs of toxicity ([3]; 4 mice): no signs of distress or illness

SMILES: CC[C@@]1(O)C(=O)OCc2c1cc1n(c2=O)Cc2cc3ccccc3nc2-1 [camptothecin]
- effect on incorporation of [3H]-thymidine, single agent [4]: virtually no effect
- 3-day viability, single agent [5]: no effect
- γ-H2A.X level, single agent [6]: weakly detectable
- DNA damage by γ-H2A.X staining, single agent [7]: minimal damage

SMILES: CC(=O)NCCSCC(=O)NCCCNCCCCNCCCN [spm-3]
- suppression of cell growth and viability, single agent [8]: effective as single agents
